This note sets out measurements from ChEMBL document CHEMBL5523709, “Synthesis and Evaluation of diaryl ether modulators of the leukotriene A4 hydrolase aminopeptidase activity” (Eur J Med Chem, 2024).

For series [1], the target named is T1, Leukotriene A-4 hydrolase (Homo sapiens, UniProt P09960).
T1 sequence (P09960 whole entry): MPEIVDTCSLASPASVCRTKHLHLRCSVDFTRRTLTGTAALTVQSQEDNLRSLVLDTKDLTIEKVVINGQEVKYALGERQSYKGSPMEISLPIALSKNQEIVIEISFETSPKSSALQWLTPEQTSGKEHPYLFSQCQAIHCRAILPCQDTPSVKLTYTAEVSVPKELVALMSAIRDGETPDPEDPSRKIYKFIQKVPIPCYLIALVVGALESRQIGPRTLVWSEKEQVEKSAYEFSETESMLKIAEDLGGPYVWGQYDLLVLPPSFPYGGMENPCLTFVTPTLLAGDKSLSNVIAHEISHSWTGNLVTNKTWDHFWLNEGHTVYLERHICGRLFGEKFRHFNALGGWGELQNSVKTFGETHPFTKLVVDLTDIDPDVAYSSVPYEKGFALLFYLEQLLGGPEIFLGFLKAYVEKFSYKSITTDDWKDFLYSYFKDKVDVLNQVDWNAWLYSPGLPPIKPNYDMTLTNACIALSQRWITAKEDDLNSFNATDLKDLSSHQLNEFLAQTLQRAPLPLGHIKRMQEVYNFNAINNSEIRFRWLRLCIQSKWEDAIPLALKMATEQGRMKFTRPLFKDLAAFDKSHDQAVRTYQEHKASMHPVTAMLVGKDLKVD
Briefly: Inhibition of human recombinant LTA4H aminopeptidase activity assessed as alanine-p-nitroanilide (Ala-pNA) hydrolysis by LCMS analysis.

The nature of series [2]: Metabolic stability in mouse liver microsomes assessed as depletion measured after 30 mins. It is filed as ADME, Microsome. The settings on record: read-out: Drug degradation.
The target of series [3] is T1, Leukotriene A-4 hydrolase. Briefly: Activation of human recombinant LTA4H aminopeptidase activity assessed as alanine-p-nitroanilide (Ala-pNA) hydrolysis by LCMS analysis.
The species entered for series [4] is Mus musculus. Briefly: Anti-inflammatory activity against 1000 CFU of Klebsiella pneumonia ATCC 43816 intranasal infected C57BL/6 mouse pneumonia model assessed as mouse survival treated a day after bacterial exposure measured upto 14 days. It is filed as functional, organism-based. The conditions noted are these: time <= 14.0 day.
The species named for series [5] is Mus musculus. Briefly: Reduction in LTB4 level in 1000 CFU of Klebsiella pneumonia ATCC 43816 intranasal infected C57BL/6 mouse pneumonia model assessed as LTB4 level in bronchoalveolar lavage fluid (BALF) ELISA based by Epoxide hydrolase assay. It is filed as functional. A general note: An ELISA detects its analyte on a solid surface through an enzyme-linked reagent.

For series [6], the target named is T2, Leukotriene A-4 hydrolase (Homo sapiens) (UniProt P09960).
T2 sequence (whole entry): T1 sequence (P09960 whole entry)
Briefly: Activation of human recombinant LTA4H aminopeptidase activity assessed as alanine-p-nitroanilide (Ala-pNA) hydrolysis at 10 uM measured within 2 mins time window by LCMS analysis.

Activity calls are given as the source filed them. The calls are words filed in the database; no cut-off is given here.

In general, IC50 refers to the concentration at which inhibition is half-maximal. For the molecule `Clc1ccc(Oc2ccc(N3CCNCC3)cc2)cc1`, in series [1], the IC50 amounted to 3330 nM.
In the case of `C[C@]12CC[C@H]3[C@@H](CCC4=CC(=O)CC[C@@]43C)[C@@H]1CC[C@@H]2O` [TESTOSTERONE], in series [2], the metabolised at 0.5 h was 98%.
By EC50 is commonly meant the concentration at which the effect is half-maximal. Consider `Nc1cc(-c2ccc(Oc3ccc(Cl)cc3)cc2)n[nH]1`, for which the concentration giving a half-maximal response (EC50) in series [3] was 120 nM.
Regarding `Nc1cc[nH]n1`, the outcome (in the series listed under Mus musculus [4]; in series [6]) was inactive. Besides, the outcome in the series filed under Mus musculus [5] was Active. The metabolised at 0.5 h in series [2] amounted to 18%.
Take `Nc1nc(-c2ccc(Cc3ccccc3)cc2)cs1`: the EC50 in series [3] was found to be 240 nM.
